According to patent EP0643964A2 (priority 1993, dated 1995):
Like-named read-outs stand apart in the source and are kept apart here.

What was measured:
canine parvovirus (CPV) = format: in vivo, dogs; settings: for Viral titers (hemagglutination): Treated group (A): 5 ml 2% lidocaine i.v. twice a day 2 days; for Viral titers of enteric homogenates: Treated group (A), titers obtained on Vero cells
[1] = test system: patient with an history of ulcerative colitis; test: Intravenous treatment of a patient with ulcerative colitis; format: in vivo, human
[2] = test system: Foot-and-mouth disease virus (FMDV); format: in vivo, Swiss mice
Giardia lamblia = test: Patients with malabsorption syndrome (MAS) caused by Giardia lamblia; format: in vivo, human
Excerpt: Volunteer # 1: Type II MAS with positive isolation of Giardia lamblia in duodenal washings and confirmation of the disease by histopathology. […] One month later, patient 1 presented symptoms and signs of recurrence of the disease, with positive isolation of parasites in feces.
Volunteer # 2: with diffuse abdominal pain, loss of body weight and steatorrhea.

[3] = Volunteer # 2, day 7 post-treatment

CCN(CC)CC(=O)Nc1c(C)cccc1C [lidocaine]
Mortality (canine parvovirus (CPV); CPV infected dogs, group A (treated), all controls died by 60 hours): no mortality
Viral titers (hemagglutination) (canine parvovirus (CPV); 12 hrs. after first signs): 0 inverse of the last dilution which agglutinated sheep red cells
Viral titers (hemagglutination) (canine parvovirus (CPV); 24 hrs.): 16 inverse of the last dilution which agglutinated sheep red cells
Viral titers (hemagglutination) (canine parvovirus (CPV); 36 hrs.): 320 inverse of the last dilution which agglutinated sheep red cells
Viral titers (hemagglutination) (canine parvovirus (CPV); 48 hrs.): 320 inverse of the last dilution which agglutinated sheep red cells
Viral titers (hemagglutination) (canine parvovirus (CPV); 60 hrs.): 160 inverse of the last dilution which agglutinated sheep red cells
Viral titers (hemagglutination) (canine parvovirus (CPV); 72 hrs.): 40 inverse of the last dilution which agglutinated sheep red cells
Viral titers (hemagglutination) (canine parvovirus (CPV); 84 hrs.): 40 inverse of the last dilution which agglutinated sheep red cells
Viral titers (hemagglutination) (canine parvovirus (CPV); 96 hrs.): 40 inverse of the last dilution which agglutinated sheep red cells
Viral titers of enteric homogenates (canine parvovirus (CPV); 12 hrs.): 2.1 x 10^2 TCID₅₀/ml
Viral titers of enteric homogenates (canine parvovirus (CPV); 24 hrs.): 0.1 x 10^4 TCID₅₀/ml
Viral titers of enteric homogenates (canine parvovirus (CPV); 36 hrs.): 0.5 x 10^7 TCID₅₀/ml
Viral titers of enteric homogenates (canine parvovirus (CPV); 48 hrs.): 0.3 x 10^7 TCID₅₀/ml
Viral titers of enteric homogenates (canine parvovirus (CPV); 60 hrs.): 2.3 x 10^5 TCID₅₀/ml
Viral titers of enteric homogenates (canine parvovirus (CPV); 72 hrs.): 6.3 x 10^4 TCID₅₀/ml
Viral titers of enteric homogenates (canine parvovirus (CPV); 84 hrs.): 5.8 x 10^4 TCID₅₀/ml
Viral titers of enteric homogenates (canine parvovirus (CPV); 96 hrs.): 6.0 x 10^4 TCID₅₀/ml
Signs of the disease (canine parvovirus (CPV); group A, after 48 hours from the beginning of treatment): none of the animals showed signs of the disease
Histological aspect of enteric mucosa (canine parvovirus (CPV); group A, by 72 hours post-treatment): normal histological aspect
Diarrhea ([1]; 4 i.v. doses each 12 hours per week, 4 weeks (5 ml, 2% solution), during the treatment): diarrhea disappeared
Colonoscopy ([1]; 5th week): congestive and edematous mucosa; no erosion could be observed
histopathological diagnosis ([1]; biopsy, 5th week): quiescent ulcerative colitis
PRESENCE OF PMNs ([2]; 0.1 ml 0.1% i.p., 8am and 8pm day 1 (group E)): 80-90%
PRESENCE OF PMNs ([2]; 0.1 ml 0.1% i.p., 8am and 8pm on day 1 and day 2 (group F)): 10%
PRESENCE OF PMNs ([2]; 0.1 ml 0.2% i.p., 8am and 8pm day 1 (group C)): 30-40%
PRESENCE OF PMNs ([2]; 0.1 ml 0.2% i.p., 8am day 1 only (group B)): 60-70%
PRESENCE OF PMNs ([2]; 0.1 ml 0.2% i.p., 8am, 8pm day 1 and 8am day 2 (group D)): 30%
PRESENCE OF PMNs ([2]; 0.1 ml 0.4% i.p., 8am day 1 only (group A)): 10%
PRESENCE OF PMNs ([2]; 0.1 ml 0.8% lidocaine i.m. twice a day, 24 hours before FMDV infection): 10%
PRESENCE OF PMNs ([2]; 0.1 ml lidocaine 0.2% i.m. twice a day 2 days (group C)): 80-90%
PRESENCE OF PMNs ([2]; 0.1 ml lidocaine 0.4% i.m. twice a day 2 days (group B)): 60-70%
PRESENCE OF PMNs ([2]; 0.1 ml lidocaine 0.8% i.m. twice a day 2 days (group A)): 30-50%
Microscopic examination of the pancreas ([2]; groups A (lidocaine endovenous 24 h after FMDV) and C (simultaneous), 48 hours post-infection): minimal inflammatory damage with absence of necrosis
Microscopic examination of the pancreas ([2]; groups A and C, 72 hours post-infection): no pancreatic damage could be found
PRESENCE OF PMNs ([2]; lidocaine concentration 0.1%, i.m. twice a day 2 days): 50-60%
PRESENCE OF PMNs ([2]; lidocaine concentration 0.2%, i.m. twice a day 2 days): 20-30%
PRESENCE OF PMNs ([2]; lidocaine concentration 0.3%, i.m. twice a day 2 days): 10-20%
PRESENCE OF PMNs ([2]; lidocaine concentration 0.4%, i.m. twice a day 2 days): 10-20%
PRESENCE OF PMNs ([2]; lidocaine concentration 0.5%, i.m. twice a day 2 days): 10-20%
PRESENCE OF PMNs ([2]; oral route, 0.1 ml of 2% solution twice a day 2 days): 50-100%
PRESENCE OF PMNs ([2]; oral route, 0.2 ml of 2% solution twice a day 2 days): 30-60%
PRESENCE OF PMNs ([2]; oral route, 0.3 ml of 2% solution twice a day 2 days): 30-60%
PRESENCE OF PMNs ([2]; oral route, 0.4 ml of 2% solution twice a day 2 days): 50%
PRESENCE OF PMNs ([2]; oral route, 0.5 ml. of 2% solution twice a day 2 days): 20-30%
D-xylose and Van der Kamer tests (Giardia lamblia; Volunteer # 1, five days later): normal values
Enteric histopathological examination (Giardia lamblia; Volunteer # 1, five days later (type II MAS before)): type I MAS
isolation of parasites in feces (Giardia lamblia; Volunteer # 1, i.v. twice a day 2 days, five days later): negative results
All tests performed (Giardia lamblia; Volunteer # 1, thirty days later): normalization of enteric function with negative isolation of parasites
D-xylose and Van der Kamer tests (Giardia lamblia; [3]): normal
Symptoms (Giardia lamblia; [3]): asymptomatic
microscopic examination of enteric mucosa (Giardia lamblia; Volunteer # 2, day 7 post-treatment (type II MAS before)): type I MAS
Overall status (Giardia lamblia; Volunteer # 2, day 28 post-treatment): asymptomatic, with gain of weight, normal tests, negative isolation of parasites and a normalization of the microscopic aspect of the enteric mucosa
isolation of parasites (Giardia lamblia; Volunteer # 2, i.v. twice a day 2 days (5 ml, 2%), day 7 post-treatment): negative results
